For 19 molecules, IC50 results are on record in ChEMBL document CHEMBL4699597, “Tabernaesines A-I, Cytotoxic Aspidosperma-Aspidosperma-Type Bisindole Alkaloids from Tabernaemontana pachysiphon” (J Nat Prod, 2020).

Assay type in all cases: functional, cell-based
One test deals with MDA-MB-231. Briefly: Cytotoxicity against human MDA-MB-231 cells assessed as reduction in cell viability after 72 hrs by MTT assay. Conditions: MDA-MB-231, 72 h. For orientation: Tetrazolium dyes change colour on reduction, which living cells bring about.
For a further test, the system named is A549. The test can be described thus: Cytotoxicity against human A549 cells assessed as reduction in cell viability after 72 hrs by MTT assay. Conditions: A549, 72 h.
The subject of a further test is T47D. The test can be described thus: Cytotoxicity against human T47D cells assessed as reduction in cell viability after 72 hrs by MTT assay.
In the next test the test system is SK-MEL-28. The test can be described thus: Cytotoxicity against human SK-MEL-28 cells assessed as reduction in cell viability after 72 hrs by MTT assay. As to conditions: SK-MEL-28, 72 h.
The subject of a further test is SW480. Briefly: Cytotoxicity against human SW480 cells assessed as reduction in cell viability after 72 hrs by MTT assay. Conditions: SW480, 72 h.
In a further test the test system is HepG2. The test can be described thus: Cytotoxicity against human HepG2 cells assessed as reduction in cell viability after 72 hrs by MTT assay. As to conditions: HepG2, 72 h.

With `CC[C@@]12C[C@H]3C[C@@]4(CN5CC[C@]67C(=C(C(=O)OC)C[C@@]8(CCO[C@@H]48)[C@H]56)Nc4ccccc47)CN4c5ccccc5[C@@]5(CCN(C[C@H](O)[C@H]1O)[C@@H]25)[C@H]34`, the IC50 in the test on MDA-MB-231, with A549, in the test with T47D, in the test with SK-MEL-28, in the test with SW480 and in the test on HepG2 was greater than 10 µM in each case.

Regarding `CC[C@@]12C[C@H]3C[C@]4(CN5CC[C@]67C(=C(C(=O)OC)C[C@@]8(CCO[C@@H]48)[C@H]56)Nc4ccccc47)CN4c5ccccc5[C@@]5(CCN(C[C@H]6O[C@H]61)[C@@H]25)[C@]34O`, the IC50 (in general, the midpoint of a concentration-inhibition curve) with MDA-MB-231 was greater than 10 µM; in the test with A549, greater than 10 µM; with T47D, 5.5 µM; in the test on SK-MEL-28, 6.4 µM; in the test on SW480, 7.2 µM; in the test on HepG2, 9.6 µM.

Regarding `CC[C@@]12C[C@H]3C[C@]4(CN5CC[C@]67C(=C(C(=O)OC)C[C@@]8(CCO[C@@H]48)[C@H]56)Nc4ccccc47)CN4c5ccccc5[C@@]5(CCN(C[C@H]6O[C@H]61)[C@@H]25)[C@H]34`, the IC50 with MDA-MB-231, in the test on A549, in the test on T47D, in the test on SK-MEL-28, in the test with SW480 and with HepG2 was greater than 10 µM in each case.

As to `CC[C@@]12C[C@H]3C[C@@]4(CN5CC[C@]67C(=C(C(=O)OC)C[C@@]8(CCO[C@@H]48)[C@H]56)Nc4ccccc47)CN4c5ccccc5[C@@]5(CCN(C[C@H]6O[C@H]61)[C@@H]25)[C@H]34`, the IC50 in the test with MDA-MB-231, with A549, in the test on T47D, with SK-MEL-28, in the test with SW480 and in the test with HepG2 was greater than 10 µM throughout.

As for `COC(=O)C1=C2Nc3ccccc3[C@@]23CCN2C[C@]4(C[C@@H]5C[C@]67CC(=O)O[C@H]6CCN6CC[C@@]8(c9cccc(OC)c9N(C4)[C@@H]58)[C@@H]67)[C@@H]4OCC[C@]4(C1)[C@H]23` [DEOXYVOBSTUSINE LACTONE], the IC50 in the test with MDA-MB-231, with A549, in the test on T47D, in the test with SK-MEL-28, in the test with SW480 and in the test with HepG2 was greater than 10 µM in each case.

On to `CC[C@@]12C[C@H]3C[C@]4(CN5CC[C@]67C(=C(C(=O)OC)C[C@@]8(CCO[C@@H]48)[C@H]56)Nc4ccccc47)CN4c5ccccc5[C@@]5(CCN(C[C@H](O)[C@H]1O)[C@@H]25)[C@H]34`, for which the IC50 in the test with MDA-MB-231 was greater than 10 µM; in the test on A549 it was greater than 10 µM; with T47D it was 8.7 µM; in the test on SK-MEL-28, 6.7 µM; in the test on SW480, 7.8 µM; in the test with HepG2, 2.5 µM.

On to `COC(=O)C1=C2Nc3ccccc3[C@@]23CCN2C[C@]4(C[C@@H]5C[C@]67CC(=O)O[C@H]6CCN6CC[C@@]8(c9cccc(OC)c9N(C4)[C@@]58O)[C@@H]67)[C@@H]4OCC[C@]4(C1)[C@H]23`, for which the IC50 with MDA-MB-231, with A549, with T47D, with SK-MEL-28, in the test on SW480 and in the test on HepG2 was greater than 10 µM each time.

For `COC(=O)C1=C2Nc3ccccc3[C@@]23CCN2C[C@]4(C[C@@H]5C[C@]67CCO[C@H]6CCN6CC[C@@]8(c9cccc(OC)c9N(C4)[C@@]58O)[C@@H]67)[C@@H]4OCC[C@]4(C1)[C@H]23`, the IC50 in the test on MDA-MB-231, in the test with A549, with T47D, in the test on SK-MEL-28, in the test with SW480 and in the test on HepG2 was greater than 10 µM in each case.

In the case of `CC[C@]1(O)C[C@@H]2CN(CCc3c([nH]c4ccccc34)[C@@](C(=O)OC)(c3cc4c(cc3OC)N(C)[C@H]3[C@@](O)(C(=O)OC)[C@H](OC(C)=O)[C@]5(CC)C=CCN6CC[C@]43[C@@H]65)C2)C1` [VINBLASTINE], the IC50 in the test on MDA-MB-231 turned out to be 0.0425 µM; with A549 it was 0.021 µM; with T47D it was 0.0103 µM; in the test on SK-MEL-28, 0.0733 µM; in the test with SW480 it was 0.0325 µM; in the test on HepG2, 0.0093 µM.

Consider `CC[C@@]12C[C@H]3C[C@@]4(CN5c6ccccc6[C@@]6(CCN(C[C@H]7O[C@H]71)[C@@H]26)[C@H]35)C(=O)N1CC[C@]23C(=C(C(=O)OC)C[C@@]5(CCO[C@@H]45)[C@H]12)Nc1ccccc13`, for which the IC50 with MDA-MB-231 is greater than 10 µM; in the test on A549 it was greater than 10 µM; in the test on T47D, 9.8 µM; in the test with SK-MEL-28, 6.8 µM; in the test on SW480 it was 9.8 µM; with HepG2, 6.3 µM.

For the molecule `CC[C@@]12C[C@H]3C[C@@]4(CN5CC[C@]67C(=C(C(=O)OC)C[C@@]8(CCO[C@@H]48)[C@H]56)Nc4ccccc47)CN4c5ccccc5[C@@]5(CCN(C[C@H]6O[C@H]61)[C@@H]25)[C@]34O`, the IC50 was 8.3 µM in the test with MDA-MB-231; greater than 10 µM in the test on A549; greater than 10 µM in the test with T47D; greater than 10 µM in the test on SK-MEL-28; greater than 10 µM with SW480; greater than 10 µM in the test on HepG2.

For the molecule `CC[C@@]12C[C@H]3C[C@@]4(CN5CC[C@]67C(=C(C(=O)OC)C[C@@]8(CCO[C@@H]48)[C@H]56)Nc4ccccc47)CN4c5ccccc5[C@@]5(CCN(C[C@H](O)[C@H]1O)[C@@H]25)[C@]34O`, the IC50 in the test with MDA-MB-231, in the test with A549, with T47D, in the test on SK-MEL-28, in the test with SW480 and with HepG2 was greater than 10 µM in each case.

On to `CC[C@@]12CC3=C4N(C[C@]5(C3)CN3CC[C@]67C(=C(C(=O)OC)C[C@@]8(CCO[C@@H]58)[C@H]36)Nc3ccccc37)c3ccccc3[C@@]43CCN(C[C@H]4O[C@H]41)[C@@H]23`, for which the IC50 in the test on MDA-MB-231, with A549, in the test on T47D, in the test with SK-MEL-28, in the test on SW480 and in the test on HepG2 was greater than 10 µM throughout.

As to `CC[C@@]12C[C@]3(CC4=C5N(C3)c3ccccc3[C@@]53CCN5C[C@H]6O[C@H]6[C@@](CC)(C4)[C@H]53)C3=Nc4ccccc4[C@@]34CCN(C[C@H]3O[C@H]31)[C@@H]24`, the IC50 in the test on MDA-MB-231, in the test with A549, with T47D, with SK-MEL-28, in the test on SW480 and in the test with HepG2 was greater than 10 µM in each case.

Consider `COC(=O)C1=C2Nc3ccccc3[C@@]23CCN2C[C@]4(C[C@@H]5C[C@]67CC(=O)O[C@H]6CCN6CC[C@@]8(c9cccc(O)c9N(C4)[C@@]58O)[C@@H]67)[C@@H]4OCC[C@]4(C1)[C@H]23`, for which the IC50 in the test on MDA-MB-231, with A549, in the test with T47D, in the test with SK-MEL-28, with SW480 and in the test with HepG2 was greater than 10 µM in each case.

`CCN(CC)Cc1ccc2c(c1O)N1C[C@]3(C[C@@H]4C[C@]56CC(=O)O[C@H]5CCN5CC[C@@]2([C@@H]56)[C@]41O)CN1CC[C@]24C(=C(C(=O)OC)C[C@@]5(CCO[C@@H]35)[C@H]12)Nc1ccccc14`: the IC50 with MDA-MB-231, in the test on A549, with T47D, in the test with SK-MEL-28, with SW480 and with HepG2 was greater than 10 µM in each case.

For the molecule `COC(=O)C1=C2Nc3ccccc3[C@@]23CCN2CC(CC4=C[C@@]5(CCO)CC(C(=O)OC)=C6Nc7ccccc7[C@@]67CCN(C4)[C@@H]57)=C[C@@](CCO)(C1)[C@H]23`, the IC50 in the test with MDA-MB-231, with A549, in the test with T47D, in the test with SK-MEL-28, in the test with SW480 and in the test with HepG2 was greater than 10 µM each time.

`CC[C@@]12C[C@H]3C[C@]4(CN5CC[C@]67C(=C(C(=O)OC)C[C@@]8(CCO[C@@H]48)[C@H]56)Nc4ccccc47)CN4c5ccccc5[C@@]5(CCN(C[C@H](O)[C@H]1O)[C@@H]25)[C@]34O`: the IC50 in the test with MDA-MB-231 is greater than 10 µM; in the test on A549, greater than 10 µM; with T47D, 9.5 µM; in the test on SK-MEL-28, greater than 10 µM; in the test with SW480 it was greater than 10 µM; in the test on HepG2 it was greater than 10 µM.

For the molecule `CCN(CC)Cc1ccc2c(c1O)N1C[C@]3(C[C@@H]4C[C@]56CCO[C@H]5CCN5CC[C@@]2([C@@H]56)[C@]41O)CN1CC[C@]24C(=C(C(=O)OC)C[C@@]5(CCO[C@@H]35)[C@H]12)Nc1ccccc14`, the IC50 in the test with MDA-MB-231 was greater than 10 µM; with A549, greater than 10 µM; with T47D it was greater than 10 µM; in the test on SK-MEL-28, 8.3 µM; in the test with SW480 it was greater than 10 µM; in the test with HepG2 it was 7.4 µM.
